Experimental data from patent US10189819B2, “Factor IXa inhibitors” (MERCK SHARP & DOHME CORP., priority 2014, dated 2019).
pIC50: −log10 of the molar value. Read-outs that look alike come from different tables or passages of the source.

Molecular target: Factor IXa (Homo sapiens (Human), UniProt P00740)
Test: Determination of inhibitory activity against Factor IXa (cleavage of fluorescent peptide CH3SO2-D-CHG-Gly-Arg-AFC)
Format: biochemical
Procedure: Determination of Inhibitory Activity Against Factor IXa
Formation of a clot to stem bleeding at a site of blood vessel injury involves the coordinated activity of a group of plasma proteins that initiate and propagate fibrin formation and subsequently protect fibrin from premature degradation. Factor IX is a key component of the plasma system that forms a fibrin clot at a site of vascular injury. The activity of Factor IXa is measured by monitoring the cleavage of the fluorescent peptide, CH3SO2-D-CHG-Gly-Arg-AFC.AcOH (“CHG” is cyclohexyl-glycine and “AFC” is trifluoro aminomethyl coumarin). Factor IXa cleaves the amide bond between Arg and AFC, thereby releasing the AFC fluorophore. The free AFC can be detected with a fluorescence detector at an excitation wavelength of 405 nm and emission wavelength of 510 nm.

Sequence of Factor IXa (P00740 227-461): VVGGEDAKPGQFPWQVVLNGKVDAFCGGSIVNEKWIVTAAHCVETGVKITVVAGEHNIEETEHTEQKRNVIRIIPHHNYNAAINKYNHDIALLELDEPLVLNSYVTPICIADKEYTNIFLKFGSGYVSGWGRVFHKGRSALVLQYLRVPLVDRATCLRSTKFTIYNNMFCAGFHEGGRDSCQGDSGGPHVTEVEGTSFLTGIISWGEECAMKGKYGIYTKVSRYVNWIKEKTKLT
Sequence of Factor IXa (P00740 47-191 partner): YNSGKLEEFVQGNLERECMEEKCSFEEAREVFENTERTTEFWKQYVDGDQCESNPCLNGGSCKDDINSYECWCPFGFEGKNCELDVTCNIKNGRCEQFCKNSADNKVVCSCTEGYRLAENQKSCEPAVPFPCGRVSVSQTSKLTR

SMILES	pIC50 (read-out: hFIXa IC50)	pIC50 (read-out: FIXa IC50)
Cc1cc2nc(C(CNC(=O)c3ccc(-n4cnnc4)cc3Cl)c3ccccc3F)[nH]c2cc1C (centres unmarked) [Example 51]	7.71	
Cc1cc2nc(C(CNC(=O)c3ccc(-n4cnnc4)cc3Cl)c3ccc(F)cc3)[nH]c2cc1C (centres unmarked) [Example 52]	8.07	
Cc1ncn(-c2ccc(C(=O)NCC(c3ccc(C(F)(F)F)nc3)c3nc4cc(C)c(C)cc4[nH]3)c(Cl)c2)n1 (centres unmarked) [Example 55]	6.37	
Cc1cc2nc(C(CNC(=O)c3ccc(-n4cnnc4)cc3Cl)c3cccnc3)[nH]c2cc1C (centres unmarked) [Example 56]	7.81	
Cc1cc2nc(C(CNC(=O)c3ccc(-n4cnnc4)cc3Cl)c3cccc(F)c3)oc2cc1C (centres unmarked) [Example 68]	7.14	
Cc1cc2nc([C@@](C)(CNC(=O)c3c(Cl)cc(-n4cnnc4)cc3Cl)c3ccc(F)cc3)[nH]c2cc1C [Example 70]		8.25
COc1cc2nc([C@@H](CNC(=O)c3c(Cl)cc(-n4cnc(C)n4)cc3Cl)n3cc(CN(C)C)nn3)[nH]c2cc1Cl [Example 72]	7.17	
COc1cc2nc(C(CNC(=O)c3c(Cl)cc(-n4cnc(C)n4)cc3Cl)n3cc(C(C)(C)O)nn3)[nH]c2cc1Cl (centres unmarked) [Example 73]	7.46	
Cc1ccc2nn([C@@H](CNC(=O)c3ccc(-n4cnnc4)cc3Cl)c3ccccc3)cc2c1 [Example 84, (R)-2-chloro-N-(2-(5-methyl-2H-indazol-2-yl)-2-phenylethyl)-4-(4H-1,2,4-triazol-4-yl)benzamide]		6.62
Cc1ccc2c(cnn2[C@H](CNC(=O)c2ccc(-n3cnnc3)cc2Cl)c2ccccc2)c1 [Example 85, (S)-2-chloro-N-(2-(5-methyl-1H-indazol-1-yl)-2-phenylethyl)-4-(4H-1,2,4-triazol-4-yl)benzamide]		7.42
Cc1ccc2c(cnn2[C@H](CNC(=O)c2c(Cl)cc(-n3cc(CCO)nn3)cc2Cl)c2cnco2)c1 [Example 86, (R)-2,6-dichloro-4-(4-(2-hydroxyethyl)-1H-1,2,3-triazol-1-yl)-N-(2-(5-methyl-1H-indazol-1-yl)-2-(oxazol-5-yl)ethyl)benzamide]		8.15
Cc1ccc2c([C@H](CNC(=O)c3ccc(-n4cnnc4)cc3Cl)c3cccc(F)c3)c[nH]c2c1 [Example 87]	7.51	
Cc1ccc2c([C@H](CNC(=O)c3ccc(-n4cnnc4)cc3Cl)c3ccccc3)n[nH]c2c1 [Example 88, (S)-2-chloro-N-(2-(6-methyl-1H-indazol-3-yl)-2-phenylethyl)-4-(4H-1,2,4-triazol-4-yl)benzamide]		7.16
Cc1ccc2nn([C@@H](CNC(=O)c3c(Cl)cc(-n4cnnc4)cc3Cl)c3ccccc3)nc2c1 [Example 89, (R)-2,6-dichloro-N-(2-(5-methyl-2H-benzo[d][1,2,3]triazol-2-yl)-2-phenylethyl)-4-(4H-1,2,4-triazol-4-yl)benzamide]		7.68
Cc1ccc2c(c1)nnn2[C@H](CNC(=O)c1c(Cl)cc(-n2cnnc2)cc1Cl)c1ccccc1 [Example 90, (S)-2,6-dichloro-N-(2-(5-methyl-1H-benzo[d][1,2,3]triazol-1-yl)-2-phenylethyl)-4-(4H-1,2,4-triazol-4-yl)benzamide]		7.42
Cc1ccc2nc([C@@H](CNC(=O)c3ccc(-n4cnnc4)cc3Cl)c3ccccc3)[nH]c(=O)c2c1 [Example 91, (R)-2-Chloro-N-(2-(6-methyl-4-oxo-3,4-dihydroquinazolin-2-yl)-2-phenylethyl)-4-(4H-1,2,4-triazol-4-yl)benzamide]		6.72
O=C(NCC(c1ccccc1)c1nc2cc(Cl)ccc2c(=O)[nH]1)c1ccc(-n2cnnc2)cc1Cl (centres unmarked) [Example 95]	6.10	
O=C(NC[C@@H](c1ccccc1)c1nc2ccc(Cl)cc2c(=O)[nH]1)c1ccc(-n2cnnc2)cc1Cl [Example 96]	6.72	
O=C(NC[C@@H](c1ccccc1)c1nc2cccc(Cl)c2c(=O)[nH]1)c1ccc(-n2cnnc2)cc1Cl [Example 97]	7.29	
O=C(NC[C@@H](c1ccccc1)c1nc2c(Cl)cccc2c(=O)[nH]1)c1ccc(-n2cnnc2)cc1Cl [Example 98]	6.75	
O=C(NC[C@@H](c1ccccc1)c1nc2c(Cl)ccc(Cl)c2c(=O)[nH]1)c1ccc(-n2cnnc2)cc1Cl [Example 99]	7.37	
Cc1cccc2nc([C@@H](CNC(=O)c3ccc(-n4cnnc4)cc3Cl)c3ccccc3)[nH]c(=O)c12 [Example 100]	7.77	

The remaining lines, values ahead:

pIC50 (read-out: hFIXa IC50)	pIC50 (read-out: FIXa IC50)	SMILES
8.55		Cc1cc2nc(C(CNC(=O)c3c(Cl)cc(-n4cnnc4)cc3Cl)c3ccc(F)cc3)[nH]c2cc1C (centres unmarked) [Example 53]
8.06		COc1cc2nc([C@@H](CNC(=O)c3c(Cl)cc(-n4cnc(C)n4)cc3Cl)c3cnc(N(C)C)nc3)[nH]c2cc1Cl [Example 57]
8.63		COc1cc2nc([C@@H](CNC(=O)c3c(Cl)cc(-n4cnc(C)n4)cc3Cl)c3ccc(C(N)=O)cc3)[nH]c2cc1Cl [Example 58]
8.82		COc1cc2nc(C(CNC(=O)c3c(Cl)cc(-n4cnc(C)n4)cc3Cl)c3cccc(C(=O)O)c3)[nH]c2cc1Cl (centres unmarked) [Example 59]
8.32		COc1cc2nc([C@@H](CNC(=O)c3c(Cl)cc(-n4cnc(C)n4)cc3Cl)c3ccc(C(=O)O)cc3)[nH]c2cc1Cl [Example 60]
8.32		CNC(=O)c1cccc([C@H](CNC(=O)c2c(Cl)cc(-n3cnc(C)n3)cc2Cl)c2nc3cc(OC)c(Cl)cc3[nH]2)c1 [Example 61]
8.76		COc1cc2nc(C(CNC(=O)c3c(Cl)cc(-n4cnc(C)n4)cc3Cl)c3cccc(CC(=O)O)c3)[nH]c2cc1Cl (centres unmarked) [Example 62]
7.56		COc1cc2nc([C@@H](CNC(=O)c3c(Cl)cc(-n4cnc(C)n4)cc3Cl)c3ccc(C(=O)N(C)C)cc3)[nH]c2cc1Cl [Example 63]
8.21		COC(=O)Cc1cccc(C(CNC(=O)c2c(Cl)cc(-n3cnc(C)n3)cc2Cl)c2nc3cc(OC)c(Cl)cc3[nH]2)c1 (centres unmarked) [Example 64]
8.25		CCOC(=O)c1ccc([C@H](CNC(=O)c2c(Cl)cc(-n3cnc(C)n3)cc2Cl)c2nc3cc(OC)c(Cl)cc3[nH]2)cc1 [Example 65]
7.77		CCOC(=O)c1cccc([C@H](CNC(=O)c2c(Cl)cc(-n3cnc(C)n3)cc2Cl)c2nc3cc(OC)c(Cl)cc3[nH]2)c1 [Example 66]
8.54		COc1cc2nc([C@@H](CNC(=O)c3c(Cl)cc(-n4cnc(C)n4)cc3Cl)c3cccc(C(=O)NC4CC4)c3)[nH]c2cc1Cl [Example 67]
	7.54	Cc1cc2cc([C@@H](CNC(=O)c3c(Cl)cc(-n4cnnc4)cc3Cl)c3ccccc3)[nH]c2cc1C [Example 74, (R)-2,6-dichloro-N-(2-(5,6-dimethyl-1H-indol-2-yl)-2-phenylethyl)-4-(4H-1,2,4-triazol-4-yl)benzamide]
	8.04	Cc1ncn(-c2cc(Cl)c(C(=O)NC[C@@H](c3cccc(F)c3)c3ccc4[nH]c(C)nc4c3)c(Cl)c2)n1 [Example 75, (R)-2,6-dichloro-N-(2-(3-fluorophenyl)-2-(2-methyl-1H-benzo[d]imidazol-5-yl)ethyl)-4-(3-methyl-1H-1,2,4-triazol-1-yl)benzamide]
	7.09	Cc1ncn(-c2cc(Cl)c(C(=O)NC[C@@H](c3cccc(F)c3)c3cnc4[nH]c(C)nc4c3)c(Cl)c2)n1 [Example 76, (S)-2,6-dichloro-N-(2-(3-fluorophenyl)-2-(2-methyl-3H-imidazo[4,5-b]pyridin-6-yl)ethyl)-4-(3-methyl-1H-1,2,4-triazol-1-yl)benzamide]
8.43		Cc1ncn(-c2cc(Cl)c(C(=O)NC[C@@H](c3cccc(F)c3)c3cnc4[nH]c(C)cc4c3)c(Cl)c2)n1 [Example 77]
8.71		Cc1ncn(-c2cc(Cl)c(C(=O)NC[C@@H](c3cccc(F)c3)c3ccc4[nH]c(C)nc4c3F)c(Cl)c2)n1 [Example 78]
8.19		Cc1ncn(-c2cc(Cl)c(C(=O)NC[C@@H](c3cccc(F)c3)c3cc(F)c4[nH]c(C)nc4c3)c(Cl)c2)n1 [Example 79]
7.77		Cc1ncn(-c2cc(Cl)c(C(=O)NC[C@@H](c3cccc(F)c3)c3ccc4[nH]c(C)nc4n3)c(Cl)c2)n1 [Example 80]
6.90		Cc1ncn(-c2cc(Cl)c(C(=O)NCC(c3cccc(F)c3)c3cc4nc(C)[nH]c4cn3)c(Cl)c2)n1 (centres unmarked) [Example 81]
7.12		Cc1ncn(-c2cc(Cl)c(C(=O)NC[C@@H](c3cccc(F)c3)c3cc(C)c4[nH]c(C)nc4c3)c(Cl)c2)n1 [Example 82]
	7.23	Cc1ncn(-c2cc(Cl)c(C(=O)NC[C@@H](c3cccc(F)c3)c3ccc4sc(C)nc4c3)c(Cl)c2)n1 [Example 83, (R)-2,6-dichloro-N-(2-(3-fluorophenyl)-2-(2-methylbenzo[d]thiazol-5-yl)ethyl)-4-(3-methyl-1H-1,2,4-triazol-1-yl)benzamide]
	9.00	Cc1ncn(-c2cc(Cl)c(C(=O)NC[C@@H](c3cccc(F)c3)c3nc4c(F)ccc(C)c4c(=O)[nH]3)c(Cl)c2)n1 [Example 92, (R)-2,6-dichloro-N-(2-(8-fluoro-5-methyl-4-oxo-3,4-dihydroquinazolin-2-yl)-2-(3-fluorophenyl)ethyl)-4-(3-methyl-1H-1,2,4-triazol-1-yl)benzamide]
	8.34	Cc1ncn(-c2cc(Cl)c(C(=O)NC[C@@H](c3ccc(F)cc3)c3nc4c(F)ccc(C)c4c(=O)[nH]3)c(Cl)c2)n1 [Example 93, (R)-2,6-dichloro-N-(2-(8-fluoro-5-methyl-4-oxo-3,4-dihydroquinazolin-2-yl)-2-(4-fluorophenyl)ethyl)-4-(3-methyl-1H-1,2,4-triazol-1-yl)benzamide]
	8.46	Cc1ncn(-c2cc(Cl)c(C(=O)NC[C@@H](c3cccc(F)c3)c3nc4c(F)ccc(Cl)c4c(=O)[nH]3)c(Cl)c2)n1 [Example 94, (R)-2,6-dichloro-N-(2-(5-chloro-8-fluoro-4-oxo-3,4-dihydroquinazolin-2-yl)-2-(3-fluorophenyl)ethyl)-4-(3-methyl-1H-1,2,4-triazol-1-yl)benzamide]
